Legend:
CD34+ cells [1] = test: Ex-vivo expansion of CD34+ cell enriched cultures with RAR antagonist, cell counts and FACS surface antigen analysis; format: cell-based, human; details: for No. of cells (× 10^4): 2 weeks after seeding; for No. of CD34+ cells: RAR antagonist 10^−5 M for one week only
Description: Human blood cells were obtained from umbilical cord blood from female patients following full-term, normal delivery (informed consent was obtained). Samples were collected and processed within 12 hours postpartum. Blood was mixed with 3% Gelatin (Sigma, St. Louis, Mo.), sedimented for 30 minutes to remove most red blood cells. […] The mononuclear cell fraction in the interface layer was collected, washed three times and resuspended in phosphate-buffered saline (PBS) solution (Biological Industries) containing 0.5% bovine serum albumin (BSA, Fraction V; Sigma).
To purify CD34^+ mononuclear cells, the fraction was subjected to two cycles of immuno-magnetic separation using the MiniMACS® or Clinimax® CD34 Progenitor Cell Isolation Kit (Miltenyi Biotec, Auburn, Calif.) as per manufacturer's recommendations.
CD34^+ expressing purified cells above were cultured in 24-well Costar Cell Culture Clusters (Coming Inc., Corning, N.Y.) or culture bags (American Fluoroseal Corp), at a concentration of 10^4 cells/ml in alpha medium (Biological Industries, Beit Haemek, Israel) supplemented with 10% fetal bovine serum (FBS, Biological Industries). The following human recombinant cytokines were added: Thrombopoietin (TPO), interleukin-6 (IL-6), FLT-3 ligand and stem cell factor (SCF), all at final concentrations of 50 ng/ml each, though occasionally IL-3, at a concentration of 20 ng/ml, was added either together or instead of SCF. For non-hematopoietic cell differentiation, FGF, EGF, NGF, VEGF, LIF or Hepatocyte growth factor (HGF) were used to supplement the growth medium, either alone or in various combinations. All cytokines used were purchased from Perpo Tech, Inc. (Rocky Hill, N.J.). The cultures were incubated at 37° C., 5% CO2, in a humidified atmosphere.
At weekly intervals, cell cultures were toped and semi-depopulated and were supplemented with fresh medium, serum and cytokines or supplemented with fresh growth medium, alone. At predetermined time points, cells were harvested, stained with trypan blue, counted, and cell morphology was determined via the use of cytospin (Shandon, UK)-prepared smears stained with May-Grunwald/Giemsa solutions.
CD34^+ purified and whole MNC cultures were prepared and maintained as described above. […] The antagonist was added for a predetermined, limited period, for up to three weeks or continuously during the entire culture period.
Cells were harvested, washed with a PBS solution containing 1% bovine sera albumin (BSA) and 0.1% sodium azide (Sigma), and stained at 4° C. for 60 minutes with fluorescein isothiocyanate or phycoerythrin-conjugated antibodies (all from Immunoquality Products, the Netherlands). The cells were then washed with the same buffer and analyzed by FACS caliber or Facstarplus flow cytometers. Cells were passed at a rate of 1000 cells/second, using saline as the sheath fluid. A 488 nm argon laser beam served as the light source for excitation. Emission of ten thousand cells was measured using logarithmic amplification, and analyzed using CellQuest software. Negative control staining of cells was accomplished with mouse IgG-PE (Dako A/S Glostrup, Denmark) and mouse IgG-FITC (BD Biosciences, Erembodegem, Belgium).
CD34 surface expression on short and long-term cultures initiated either with purified CD34^+ cells or the entire MNC fraction was determined as follows: CD34^+ cells were positively reselected (Miltenyi kit) and counted. Purity was confirmed by subsequent FACS and cell morphology analysis.
Reselected CD34^+ cell subsets were stained for the following combination of antigens: CD34PE/CD38FITC and CD34PE/38, 33, 14, 15, 3, 4, 61, 19 (Lin) FITC. The fraction positive for CD34 and negative for CD38 was defined as CD34^+CD38^−. The fraction positive for CD34 and negative for LIN was defined as CD34^+Lin^− cell fraction.
FACS analysis results are given as percentage values of cells. Absolute numbers of subsets are calculated from the absolute number of CD34^+ cells.

CD34+ cells [2] = test: Ex vivo expansion of CD34+ cell enriched cultures with RXR, RAR and RAR+RXR antagonists (CFU, CD34+ counts, FACS); format: cell-based, human; details: 10^−7 M, with TPO, FLT3, IL-6 and IL-3; 3 and 5 weeks
Description: Cultures were prepared and maintained as described above.
, the percentage of cells bearing the CD34^+ marker (considered to be mostly committed progenitor cells), as well as the percentage of cells bearing the markers CD34^+/CD38^− and CD34^+Lin^− […]

Hepatocytes = test: Hepatocyte cultures ex-vivo expanded with TEPA; format: cell-based, BALB/c mice; details: 15 μg/ml TEPA, five weeks
Description: Hepatocytes: Livers were dissected from anesthetized BALB/c mice with sterile tools and immersed into F12 culture medium (Biological Industries, Kibbutz Bet Ha'Emek, Israel). The livers were washed three times with 3% BSA/PBS buffer and minced into small pieces with seizures. Following three washes with 3% BSA/PBS the liver tissue pieces were incubated for 30 minutes with 0.05% collagenase at 37° C. with continuos shaking under 5% CO2 atmosphere. The digested liver tissue pieces were than mashed by pressing through a fine mesh strainer. After three washes with 3% BSA/PBS the liver cells were seeded into F12 culture medium enriched with: 15 mM HEPES buffer, […], 10 mM sodium bicarbonate, 0.5 u/ml insulin, 7.5 ng/ml hydrocortisone and with or without 15 μg/ml of TEPA and incubated at 37° C. in a 5% CO2 atmosphere. After overnight incubation the medium was removed and the cells were supplemented with fresh enriched F12 medium as described above with or without 15 μg/ml of TEPA. Hepatocytes were incubated in 35 mm dishes for several weeks with enriched F12 culture medium with or without 15 μg/ml TEPA at 37° C. under 5% CO2 atmosphere. Cell culture medium was replaced every week with a fresh medium.

[3] = RAR antagonist 10^−5 M, 2 weeks
[4] = RAR antagonist 10^−6 M, 2 weeks
[5] = reselected CD34+ cells after two weeks in culture

CCc1ccc(C2=CC(C)(C)Sc3ccc(C#Cc4ccc(C(=O)O)cc4)cc32)cc1 [AGN 194310]
cell proliferation enabled until (post initial seeding) (CD34+ cells [1]; AGN194310 10^−7 M): ≤ 11 weeks | expression of the CD38 antigen (CD34+ cells [1]; FACS, 2 weeks): completely abolished | No. of cells (× 10^4) (CD34+ cells [1]; RAR antagonist 10^−5 M + 4 cytokines): 42 × 10^4 | No. of CD34+ cells (CD34+ cells [1]; week 13): 10322 | No. of CD34+ cells (CD34+ cells [1]; week 20): 0 | % 34^+/38^−cells (CD34+ cells [1]; [3]): 17.14% | % 34^+/Lin^−cells (CD34+ cells [1]; [3]): 15.18% | % 34^+cells (CD34+ cells [1]; [3]): 18.94% | No. of cells (× 10^4) (CD34+ cells [1]; RAR antagonist 10^−6 M + 4 cytokines): 52 × 10^4 | % 34^+/38^−cells (CD34+ cells [1]; [4]): 17.16% | % 34^+/Lin^−cells (CD34+ cells [1]; [4]): 11.91% | % 34^+cells (CD34+ cells [1]; [4]): 19.59% | increase in CD34+ expression between week three to eleven (CD34+ cells [1]; RAR antagonist first three weeks only, then eight weeks without): 92 fold | CD34^+Lin^− expansion (CD34+ cells [1]; after two weeks in culture, CD34+ re-selected fraction): 530 fold | increase in CD34^+CD38^− surface expression (CD34+ cells [1]; [5]): 1000 fold | increase in CD34^+Lin^− surface expression (CD34+ cells [1]; [5]): 500 fold | expansion of CD34+ compartment since the initiation of the cultures (CD34+ cells [1]; week 11, RAR antagonist first three weeks only): 1621 fold | increase in CD34^+Lin^− expression (CD34+ cells [1]; week eleven, 9 weeks after termination of antagonist treatment): 16,700 fold | activity on ex vivo expansion of stem/progenitor cells (CFU, CD34+, CD34+/38−, CD34+/Lin−) (CD34+ cells [2]): moderate activity

NCCNCCNCCNCCN [TEPA, tetraethylenepentamine]
cell content of hepatocyte cultures (Hepatocytes): contained many dividing and undifferentiated cells

Source: patent US20050054103A1, “Expansion of renewable stem cell populations using modulators of PI 3-kinase” (priority 2003, published 2005)
